Results as given in US9400281B2, “Method of screening of therapeutic agents for K-Ras mutant driven cancers” (PUSAN NATIONAL UNIVERSITY INDUSTRY-UNIVERSITY COOPERATION …, priority 2008, dated 2016).

Assays:
A549 and Capan-1 = test: Expression of median (culture media) p53 in A549 and Capan-1; format: cell-based; settings: A549 and Capan-1, FIG. 15B
Method: (§1) Also, protease inhibitor (PMSF) and endocytosis inhibitor (Brefeldin A; BFA) were treated into A549 and Capan-1.

A549 = test: Location of recombinant p53 in A549 whole cell lysate (endocytosis); format: cell-based; settings: A549, FIG. 15C
Method: First, A549 and MKN 45 cells were treated with recombinant p53, and their locations were identified. In comparison with control protein (His-lamin A) recovered from media, His-p53 was expressed in whole cell lysate of A549 (FIG. 15A). In addition, His-p53 was completely removed from MKN45 cells and culture media thereof (FIG. 15A).
as §1

SNAIL and p53 binding = test: ELISA system for screening SNAIL-p53 binding inhibitors; parameters: species or system human; settings: His-p53 (93-292) and GST SNAIL
Method: To isolate SNAIL-p53 binding inhibitor, ELISA system was prepared. His-p53 (93-292) was immobilized on 96 well plates using 0.5 PFA. After drying and washing, the 96 well plates were incubated with GST SNAIL with 0.1 μM of chemicals (final concentration). After 1 hour incubation, the 96 well plates were washed with TBST and incubated with anti-GST-antibody (1: 10000, 45 min) and anti-mouse-IgG-HRP (1; 50000, 30 min). After washing twice, plates were incubated with a TMB solution and a stop solution. Measurement was performed using an ELISA plate reader.

K-Ras mutated cells = test: Cell death in K-Ras mutated cells; format: cell-based; settings: FIG. 11D

C[C@H]1CCC/C=C/[C@@H]2C[C@H](O)C[C@H]2[C@H](O)/C=C/C(=O)O1 [Brefeldin A]
Expression of median p53 (A549 and Capan-1): increased expression of median p53
Location of recombinant p53 in whole cell lysate (A549): blocked the location of recombinant p53

O=c1c(O)c(-c2ccc(O)c(O)c2)oc2cc(O)cc(O)c12 [Quercetin]
Inhibition of SNAIL and p53 binding (SNAIL and p53 binding): identified as an inhibitor of SNAIL-p53 interaction

COc1cc(/C=C/C(=O)O)ccc1O [ferulic acid]
Cell death (K-Ras mutated cells): evoked cell death
